From ChEMBL document CHEMBL1158270, “Triangulynes A-H and trangulynic acid, new cytotxic polyacetylenes from the marine sponge Pellina triangulata” (1996)

Key:
Assay type in all cases: functional
ACHN = experiment: Cytotoxicity against human ACHN cells
SK-MEL-28 = experiment: Cytotoxicity against human SK-MEL-28 cells
HOP-92 = experiment: Cytotoxicity against human HOP92 cells
CCRF-CEM = experiment: Cytotoxicity against human CCRF-CEM cells
TK-10 = experiment: Cytotoxicity against human TK10 cells
SF-539 = experiment: Cytotoxicity against human SF539 cells
BT-549 = experiment: Cytotoxicity against human BT549 cells
DU-145 = experiment: Cytotoxicity against human DU145 cells
HL-60 = experiment: Cytotoxicity against human HL60 cells
MCF7 = experiment: Cytotoxicity against human MCF7 cells
OVCAR-4 = experiment: Cytotoxicity against human OVCAR4 cells
COLO 205 = experiment: Cytotoxicity against human COLO205 cells
HCT-15 = experiment: Cytotoxicity against human HCT15 cells
NCI-H23 = experiment: Cytotoxicity against human NCI-H23 cells
K562 = experiment: Cytotoxicity against human K562 cells
[1] = read-out: pLC50 (the source's name) (converted)

For C#C[C@H](O)/C=C/CCCCCCCCCC/C=C\CCCCCCC[C@H](O)C#CC#CC#CCO [TRIANGULYNE A], the GI50 (ACHN) was 776 nM, the CC50 (ACHN; [1]) was 32.4 µM and the TGI (ACHN; read-out: pTGI (converted)) was 7.24 µM. For the same molecule, the GI50 (SK-MEL-28) was 708 nM, the CC50 (SK-MEL-28; [1]) was 12 µM and the TGI (SK-MEL-28; read-out: pTGI (converted)) was 2290 nM. It also gave a GI50 (HOP-92) of 324 nM, a CC50 (HOP-92; [1]) of 15.1 µM and a TGI (HOP-92; read-out: pTGI (converted)) of 1200 nM. For the same molecule, the GI50 (CCRF-CEM) was 170 nM, the LC50 (CCRF-CEM) was 33.9 µM and the TGI (CCRF-CEM; read-out: pTGI (converted)) was 776 nM. It also gave a GI50 (TK-10) of 646 nM, a CC50 (TK-10; [1]) of 11 µM and a TGI (TK-10; read-out: pTGI (converted)) of 2090 nM. It also gave a GI50 (SF-539) of 1100 nM, a CC50 (SF-539; [1]) of 19.1 µM and a TGI (SF-539; read-out: pTGI (converted)) of 3.31 µM. For the same molecule, the GI50 (BT-549) was 794 nM, the CC50 (BT-549; [1]) was 11 µM and the TGI (BT-549; read-out: pTGI (converted)) was 2400 nM. It also gave a GI50 (DU-145) of 1410 nM, a CC50 (DU-145; [1]) of 18.2 µM and a TGI (DU-145; read-out: pTGI (converted)) of 5.5 µM. It also gave a GI50 (HL-60) of 83.2 nM, an LC50 (HL-60) of 25.1 µM and a TGI (HL-60; read-out: pTGI (converted)) of 3.63 µM. The GI50 (MCF7) was 1580 nM, the CC50 (MCF7; [1]) was 25.7 µM and the TGI (MCF7; read-out: pTGI (converted)) was 6.03 µM. For the same molecule, the GI50 (OVCAR-4) was 851 nM, the CC50 (OVCAR-4; [1]) was 38 µM and the TGI (OVCAR-4; read-out: pTGI (converted)) was 6.31 µM. The GI50 (COLO 205) was 200 nM, the LC50 (COLO 205) was 2290 nM and the TGI (COLO 205; read-out: pTGI (converted)) was 417 nM. The GI50 (HCT-15) was 407 nM, the LC50 (HCT-15) was 7.24 µM and the TGI (HCT-15; read-out: pTGI (converted)) was 2090 nM. For the same molecule, the GI50 (NCI-H23) was 257 nM, the CC50 (NCI-H23; [1]) was 14.1 µM and the TGI (NCI-H23; read-out: pTGI (converted)) was 1290 nM. The GI50 (K562) was 372 nM, the LC50 (K562) was 37.2 µM and the TGI (K562; read-out: pTGI (converted)) was 2290 nM.
